Experiments:
Assay type in all cases: cell-based
Proteus vulgaris = assay: MIC against Gram-negative bacteria: Proteus vulgaris; conditions: 5×10^5 CFU/mL
Summary of the method: (§1)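 MIC, the lowest recombinant protein concentration giving no bacterial growth, found by two-fold serial dilution of human EGF-domain proteins in triplicate. Inoculum 5×10^5 CFU/mL in LB from cultures at McFarland 0.5; plates incubated at 37° C, 175 rpm shaking.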

E. coli BL21 = assay: MIC against Gram-negative bacteria: E. coli BL21; conditions: 5×10^5 CFU/mL
Summary of the method: as §1

Pseudomonas aeruginosa = assay: MIC against Gram-negative bacteria: Pseudomonas aeruginosa; conditions: 5×10^5 CFU/mL
Summary of the method: as §1

Enterobacter cloacae = assay: MIC against Gram-negative bacteria: Enterobacter cloacae; conditions: 5×10^5 CFU/mL
Summary of the method: as §1

Moraxella catarrhalis = assay: MIC against Gram-negative bacteria: Moraxella catarrhalis; conditions: 5×10^5 CFU/mL
Summary of the method: as §1

Serratia marcescens = assay: MIC against Gram-negative bacteria: Serratia marcescens; conditions: 5×10^5 CFU/mL
Summary of the method: as §1

Klebsiella pneumonia = assay: MIC against Gram-negative bacteria: Klebsiella pneumonia; conditions: 5×10^5 CFU/mL
Summary of the method: as §1

Proteus mirabilis = assay: MIC against Gram-negative bacteria: Proteus mirabilis; conditions: 5×10^5 CFU/mL
Summary of the method: as §1

E. coli DH5α = assay: Antibacterial activity: MIC and growth curve against E. coli DH5α in 96-well plate; conditions: minimal inhibitory concentration against E. coli DH5α; 96-well plate, 5×10^5 CFU/mL, 37° C., judged after 8 h
Summary of the method: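 Log-phase bacteria (OD600 ~0.5) resuspended in LB at 5×10^5 CFU/mL, exposed to recombinant protein at 50, 25, 12.5 μg/mL final in triplicate, 37 °C shaking at 175 rpm. OD600 read every 30 min; MIC is lowest concentration showing no growth.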

Citrobacter diversus = assay: MIC against Gram-negative bacteria: Citrobacter diversus; conditions: 5×10^5 CFU/mL
Summary of the method: as §1

Aeromonas hydrophila = assay: MIC against Gram-negative bacteria: Aeromonas hydrophila; conditions: 5×10^5 CFU/mL
Summary of the method: as §1

[1] = Proteus vulgaris, 96-well plate, 37° C., 10 h
[2] = E. coli BL21, 96-well plate, 37° C., 10 h
[3] = Pseudomonas aeruginosa, 96-well plate, 37° C., 10 h
[4] = Enterobacter cloacae, 96-well plate, 37° C., 10 h
[5] = Moraxella catarrhalis, 96-well plate, 37° C., 10 h
[6] = Serratia marcescens, 96-well plate, 37° C., 10 h
[7] = Klebsiella pneumonia, 96-well plate, 37° C., 10 h
[8] = Proteus mirabilis, 96-well plate, 37° C., 10 h
[9] = Citrobacter diversus, 96-well plate, 37° C., 10 h
[10] = Aeromonas hydrophila, 96-well plate, 37° C., 10 h
[11] = 10 h cultivation at 37° C., two-fold serial dilution

With “PRT1296 (GCEPCHKKVCAHGTCQPSSQAGFTCECQEGWMGPLCD; listed as Homo sapiens)” the “MIC against P. vulgaris” value (Proteus vulgaris; [1]) was 50 µg/mL, the “MIC against E. coli BL21” value (E. coli BL21; [2]) was 12.5 µg/mL and the “MIC against P. aeruginosa” value (Pseudomonas aeruginosa; [3]) was 25 µg/mL. The “MIC against E. cloacae” value (Enterobacter cloacae; [4]) was 25 µg/mL, the “MIC against M. catarrhalis” value (Moraxella catarrhalis; [5]) was 12.5 µg/mL and the “MIC against S. marcescens” value (Serratia marcescens; [6]) was 25 µg/mL. For the same substance, the “MIC against K. pneumonia” value (Klebsiella pneumonia; [7]) was 50 µg/mL, the “MIC against P. mirabilis” value (Proteus mirabilis; [8]) was 25 µg/mL and the MIC (E. coli DH5α) was 50 µg/mL. For the same substance, the “MIC against C. diversus” value (Citrobacter diversus; [9]) was 50 µg/mL and the “MIC against A. hydrophila” value (Aeromonas hydrophila; [10]) was 100 µg/mL.

In the case of “PRT5 (DGDQCETSPCQNQGKCKDGLGEYTCTCLEGFEGKNCE; listed as Homo sapiens)”, the “MIC (μg/mL) P. vulgaris” value (Proteus vulgaris; [1]) is reported as 12.5 µg/mL, the “MIC (μg/mL) E. coli BL21” value (E. coli BL21; [2]) is reported as 12.5 µg/mL and the “MIC (μg/mL) P. aeruginosa” value (Pseudomonas aeruginosa; [3]) is reported as 25 µg/mL. The “MIC (μg/mL) E. cloacae” value (Enterobacter cloacae; [4]) was 25 µg/mL, the “MIC (μg/mL) M. catarrhalis” value (Moraxella catarrhalis; [5]) was 25 µg/mL and the “MIC (μg/mL) S. marcescens” value (Serratia marcescens; [6]) was 25 µg/mL. For the same substance, the “MIC (μg/mL) K. pneumonia” value (Klebsiella pneumonia; [7]) was 25 µg/mL, the “MIC (μg/mL) P. mirabilis” value (Proteus mirabilis; [8]) was 12.5 µg/mL and the MIC (E. coli DH5α) was 12.5 µg/mL. The “MIC (μg/mL) C. diversus” value (Citrobacter diversus; [9]) was 25 µg/mL and the “MIC (μg/mL) A. hydrophila” value (Aeromonas hydrophila; [10]) was 12.5 µg/mL.

In the case of “PRT1358 (SQLACPSDCNDQGKCVNGVCICFEGYAGADCS; listed as Homo sapiens)”, the “MIC against P. vulgaris” value (Proteus vulgaris; Proteus vulgaris, 10 h cultivation at 37° C.) is reported as 25 µg/mL, the “MIC against E. coli BL21” value (E. coli BL21; E. coli BL21, 10 h cultivation at 37° C.) is reported as 12.5 µg/mL and the “MIC against P. aeruginosa” value (Pseudomonas aeruginosa; Pseudomonas aeruginosa, 10 h cultivation at 37° C.) is reported as 50 µg/mL. For the same substance, the “MIC against E. cloacae” value (Enterobacter cloacae; Enterobacter cloacae, 10 h cultivation at 37° C.) was 12.5 µg/mL, the “MIC against M. catarrhalis” value (Moraxella catarrhalis; Moraxella catarrhalis, 10 h cultivation at 37° C.) was 25 µg/mL and the “MIC against S. marcescens” value (Serratia marcescens; Serratia marcescens, 10 h cultivation at 37° C.) was 12.5 µg/mL. For the same substance, the “MIC against K. pneumonia” value (Klebsiella pneumonia; Klebsiella pneumonia, 10 h cultivation at 37° C.) was 12.5 µg/mL, the “MIC against P. mirabilis” value (Proteus mirabilis; Proteus mirabilis, 10 h cultivation at 37° C.) was 12.5 µg/mL and the MIC (E. coli DH5α) was 50 µg/mL. The “MIC against C. diversus” value (Citrobacter diversus; Citrobacter diversus, 10 h cultivation at 37° C.) was 12.5 µg/mL and the “MIC against A. hydrophila” value (Aeromonas hydrophila; Aeromonas hydrophila, 10 h cultivation at 37° C.) was 25 µg/mL.

With “PRT1175 (AEHACLSDPCHNRGSCKETSLGFECECSPGWTGPTCS; listed as Homo sapiens)” the “MIC P. vulgaris” value (Proteus vulgaris; [11]) was 50 µg/mL, the “MIC E. coli BL21” value (E. coli BL21; [11]) was 25 µg/mL and the “MIC P. aeruginosa” value (Pseudomonas aeruginosa; [11]) was 50 µg/mL. The “MIC E. cloacae” value (Enterobacter cloacae; [11]) was 12.5 µg/mL, the “MIC M. catarrhalis” value (Moraxella catarrhalis; [11]) was 12.5 µg/mL and the “MIC S. marcescens” value (Serratia marcescens; [11]) was 25 µg/mL. The “MIC K. pneumonia” value (Klebsiella pneumonia; [11]) was 25 µg/mL, the “MIC P. mirabilis” value (Proteus mirabilis; [11]) was 25 µg/mL and the MIC (E. coli DH5α) was 12.5 µg/mL. For the same substance, the “MIC C. diversus” value (Citrobacter diversus; [11]) was 25 µg/mL and the “MIC A. hydrophila” value (Aeromonas hydrophila; [11]) was 50 µg/mL.

For “PRT711 (GDNMCRVNNGGCSTLCLAIPGGRVCACADNQLLDENGTTCT; listed as Homo sapiens)”, the “MIC P. vulgaris” value (Proteus vulgaris; 96-well plate, 37° C., 10 h) was 25 µg/mL, the “MIC E. coli BL21” value (E. coli BL21; 96-well plate, 37° C., 10 h) was 12.5 µg/mL and the “MIC P. aeruginosa” value (Pseudomonas aeruginosa; 96-well plate, 37° C., 10 h) was 50 µg/mL. For the same substance, the “MIC E. cloacae” value (Enterobacter cloacae; 96-well plate, 37° C., 10 h) was 25 µg/mL, the “MIC M. catarrhalis” value (Moraxella catarrhalis; 96-well plate, 37° C., 10 h) was 50 µg/mL and the “MIC S. marcescens” value (Serratia marcescens; 96-well plate, 37° C., 10 h) was 50 µg/mL. For the same substance, the “MIC K. pneumonia” value (Klebsiella pneumonia; 96-well plate, 37° C., 10 h) was 12.5 µg/mL, the “MIC P. mirabilis” value (Proteus mirabilis; 96-well plate, 37° C., 10 h) was 12.5 µg/mL and the MIC (E. coli DH5α) was 25 µg/mL. The “MIC C. diversus” value (Citrobacter diversus; 96-well plate, 37° C., 10 h) was 12.5 µg/mL and the “MIC A. hydrophila” value (Aeromonas hydrophila; 96-well plate, 37° C., 10 h) was 50 µg/mL.

In the case of “PRT1332 (FGPSCSSVCNCVHGVCNSGLDGDGTCECYSAYTGPKCD; listed as Homo sapiens)”, the “MIC against P. vulgaris” value (Proteus vulgaris; [1]) is reported as 12.5 µg/mL, the “MIC against E. coli BL21” value (E. coli BL21; [2]) is reported as 12.5 µg/mL and the “MIC against P. aeruginosa” value (Pseudomonas aeruginosa; [3]) is reported as 50 µg/mL. For the same substance, the “MIC against E. cloacae” value (Enterobacter cloacae; [4]) was 12.5 µg/mL, the “MIC against M. catarrhalis” value (Moraxella catarrhalis; [5]) was 12.5 µg/mL and the “MIC against S. marcescens” value (Serratia marcescens; [6]) was 25 µg/mL. The “MIC against K. pneumonia” value (Klebsiella pneumonia; [7]) was 25 µg/mL, the “MIC against P. mirabilis” value (Proteus mirabilis; [8]) was 25 µg/mL and the MIC (E. coli DH5α) was 50 µg/mL. For the same substance, the “MIC against C. diversus” value (Citrobacter diversus; [9]) was 25 µg/mL and the “MIC against A. hydrophila” value (Aeromonas hydrophila; [10]) was 50 µg/mL.

Reference: patent US9833497B2, “Human originated EGF domain proteins and use of the same” (CHENGDU SOURCEBIO LIMITED-LIABILITY COMPANY, priority 2013, dated 2017)
